{
  "source": "patent US8653092B2",
  "about": "“Tetrahydro-pyrido-pyrimidine derivatives” (Novartis AG, priority 2010, dated 2014)",
  "key": {"[1]": {"target": "human phosphoinositide-3 kinase (PI3K) delta (Homo sapiens (Human), UniProt O00329)", "sequence (O00329 whole entry)": "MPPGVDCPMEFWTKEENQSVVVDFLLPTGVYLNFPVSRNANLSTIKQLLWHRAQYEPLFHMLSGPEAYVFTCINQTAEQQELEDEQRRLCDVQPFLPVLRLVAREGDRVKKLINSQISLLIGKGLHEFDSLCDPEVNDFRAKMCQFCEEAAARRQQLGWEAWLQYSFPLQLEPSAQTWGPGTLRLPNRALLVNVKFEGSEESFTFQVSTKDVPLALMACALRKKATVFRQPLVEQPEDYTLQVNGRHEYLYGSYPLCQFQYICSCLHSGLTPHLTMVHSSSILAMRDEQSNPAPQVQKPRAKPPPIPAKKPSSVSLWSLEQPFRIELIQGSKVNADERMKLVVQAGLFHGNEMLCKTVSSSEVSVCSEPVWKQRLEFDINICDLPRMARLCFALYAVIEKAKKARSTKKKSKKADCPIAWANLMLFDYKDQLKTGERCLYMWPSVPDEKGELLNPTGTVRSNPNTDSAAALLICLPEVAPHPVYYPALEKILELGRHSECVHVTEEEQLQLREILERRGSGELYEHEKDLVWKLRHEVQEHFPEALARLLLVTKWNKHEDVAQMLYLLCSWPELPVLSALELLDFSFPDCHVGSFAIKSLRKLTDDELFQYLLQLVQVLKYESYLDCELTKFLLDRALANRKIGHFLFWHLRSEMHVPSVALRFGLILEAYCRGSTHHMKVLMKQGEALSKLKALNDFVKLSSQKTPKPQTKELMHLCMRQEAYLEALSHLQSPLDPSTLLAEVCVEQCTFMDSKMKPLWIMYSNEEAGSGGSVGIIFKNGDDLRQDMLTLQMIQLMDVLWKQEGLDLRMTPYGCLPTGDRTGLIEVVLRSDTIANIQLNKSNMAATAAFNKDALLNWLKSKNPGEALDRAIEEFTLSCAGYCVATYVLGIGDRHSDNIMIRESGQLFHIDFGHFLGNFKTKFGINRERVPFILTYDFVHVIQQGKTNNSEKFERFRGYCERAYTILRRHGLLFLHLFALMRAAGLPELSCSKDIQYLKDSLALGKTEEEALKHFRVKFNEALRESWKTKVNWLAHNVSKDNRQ", "sequence (Q63787 whole entry partner)": "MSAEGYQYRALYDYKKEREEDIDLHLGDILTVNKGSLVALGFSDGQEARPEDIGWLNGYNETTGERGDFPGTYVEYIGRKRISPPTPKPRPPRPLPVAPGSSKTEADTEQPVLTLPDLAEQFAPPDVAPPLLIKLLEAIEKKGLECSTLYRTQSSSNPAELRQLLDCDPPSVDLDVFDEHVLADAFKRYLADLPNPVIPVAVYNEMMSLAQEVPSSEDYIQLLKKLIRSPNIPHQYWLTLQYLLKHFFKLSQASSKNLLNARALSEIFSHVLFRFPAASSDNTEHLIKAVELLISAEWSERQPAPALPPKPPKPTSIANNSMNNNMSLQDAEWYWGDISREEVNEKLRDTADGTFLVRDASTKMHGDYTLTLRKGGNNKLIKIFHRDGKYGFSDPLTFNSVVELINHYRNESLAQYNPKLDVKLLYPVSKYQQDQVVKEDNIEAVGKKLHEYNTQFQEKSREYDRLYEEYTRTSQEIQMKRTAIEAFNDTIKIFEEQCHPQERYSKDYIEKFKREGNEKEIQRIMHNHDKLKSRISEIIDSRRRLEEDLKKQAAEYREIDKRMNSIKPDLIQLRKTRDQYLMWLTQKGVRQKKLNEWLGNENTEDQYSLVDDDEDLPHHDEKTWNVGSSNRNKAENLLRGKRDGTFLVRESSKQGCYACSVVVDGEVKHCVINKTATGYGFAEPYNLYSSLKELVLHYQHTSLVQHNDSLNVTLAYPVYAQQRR", "test": "PI3K-mediated Akt 1/2 (S473) phosphorylation in Rat-1 cells (AlphaScreen SureFire)", "assay_type": "cell-based", "details": "Rat-1 cells overexpressing myristoylated human PI3K delta, p-Akt (Ser473); read-out: Cell PI3Kδ/ IC50 [umol l − 1]", "experimental": "Rat-1 cells stably overexpressing a myristoylated form of the catalytic subunit of human phosphoinositide-3 kinase (PI3K) alpha, beta or delta were plated in 384-well plates at a density of 7500 (PI3K alpha), 6200 (PI3K beta), or 4000 (PI3K delta) cells in 30 ul complete growth medium (Dulbecco's modified Eagle's medium (DMEM high glucose) supplemented with 10% (v/v) fetal bovine serum, 1% (v/v) MEM non essential amino acids, 10 mM HEPES, 2 mM L-glutamine, 10 μg/mL puromycin and 1% (v/v) Penicillin/Streptomycin) and were incubated at […]/5% CO2/95% humidity for 24 h. Compounds were diluted in 384-well compound plates to obtain 8-point serial dilutions for 40 test compounds in 90% DMSO, as well as 4 reference compounds plus 16 high controls and 16 low (inhibited) controls. Predilution plates were prepared by dispensing pipetting 250 nl of compound solutions into 384-well polypropylen plates using a Hummingwell nanoliter dispensor. Compounds were prediluted by the addition of 49.75 ul complete growth medium. 10 ul of prediluted compound solution were transferred to the cell plate using a 384-well pipettor, resulting in a final DMSO concentration of 0.11%. Cells were incubated for 1 h at […]/5% CO2/95% humidity. The supernatant was removed, the cells were lysed in 20 ul of lysis buffer for AlphaScreen® SureFire® detection.\nFor detection of p-AKT (Ser473), the SureFire® p-Akt 1/2 (Ser473) Assay Kit (PerkinElmer, U.S.A) was used. 5 ul of cell lysate was transferred to 384-well low volume Proxiplates for detection using a 384-well pipettor. Addition of AlphaScreen® SureFire® reagents was done according to the manufacturer's protocol. First, 5 ul of reaction buffer plus activation buffer mix containing AlphaScreen® acceptor beads was added, the plate was sealed, and incubated on a plate shaker for 2 hours at room temperature. Second, 2 ul of dilution buffer containing AlphaScreen® donor beads was added, and the plate was incubated on plate shaker as above for a further 2 hours. The plate was read on an AlphaScreen® compatible plate reader, using standard AlphaScreen® settings."}, "murine B cells": {"test_system": "murine B cells", "test": "Murine B cell activation: CD86 upregulation after anti-IgM stimulation", "assay_type": "cell-based, mouse", "details": "Balb/c mouse splenocytes, anti-IgM 24 h, CD86 on CD19+ B cells, read-out: mCD86/IC50 CD86 [nmol l − 1]", "experimental": "Spleens from Balb/c mice were collected, splenocytes were isolated and washed twice with RPMI containing 10% foetal bovine serum (FBS), 10 mM HEPES, 100 Units/mL penicilline/streptomycine. RPMI supplemented in this way is subsequently referred to as medium. The cells were adjusted to 2.5×10^6 cells/mL in medium and 200 μl cell suspension (5×10^6 cells) were added to the appropriate wells of 96 well plates.\nThen the cells were stimulated by adding 50 μl anti-IgM mAb in medium (final concentration: 30 μg/mL). After incubation for 24 hours at 37° C., the cells were stained with the following antibody cocktails: anti-mouse CD86-FITC, anti-mouse CD69-PerCP-Cy5.5, anti-mouse CD19-PerCP for the assessment of B cells, and anti-mouse CD3-FITC, anti-mouse CD69-PE for the assessment of T cells (2 μl of each antibody/well). After one hour at room temperature (RT) in the dark the cells were transferred to 96 Deepwell plates. The cells were washed once with 1 mL PBS containing 2% FBS and after re-suspension in 200 μl the samples were analyzed on a FACS Calibur flow cytometer. Lymphocytes were gated in the FSC/SSC dot plot according to size and granularity and further analyzed for expression of CD19, CD3 and activation markers (CD86, CD69). Data were calculated from dot blots as percentage of cells positively stained for activation markers within the CD19+ or CD3+ population using BD CellQest Software.\nFor assessing the inhibitory property of compounds, compounds were first dissolved and diluted in DMSO followed by a 1:50 dilution in medium. Splenocytes from Balb/c mice were isolated, re-suspended and transfered to 96 well plates as described above (200 μl/well). The diluted compounds or solvent were added to the plates (25 μl) and incubated at 37° C. for 1 hour. Then the cultures were stimulated with 25 μl anti-IgM mAb/well (final concentration […]) for 24 hours at 37° C. and stained with anti-mouse CD86-FITC and anti-mouse CD19-PerCP (2 μl of each antibody/well). CD86 expression on CD19 positive B cells was quantified by flow cytometry as described above."}, "[2]": {"test_system": "antibody production to sheep red blood cells (SRBC)", "test": "Antibody production to sheep red blood cells (SRBC), plaque forming assay", "assay_type": "in vivo, rat", "details": "OFA rats, 10 mg/kg bid orally d0-d3, spleens on d4", "experimental": "In brief, OFA rats were injected i.v. with sheep erythrocytes on d0 and treated orally on four consecutive days (d0 to d3) with the compounds under investigation. Spleen cell suspensions were prepared on d4 and lymphocytes were plated onto soft agar in presence of indicator cells (SRBC) and complement. Lysis of the indicator cells due to secretion of SRBC-specific antibody (predominantly of the IgM subclass) and presence of complement yielded plaques. The number of plaques per plate were counted and expressed as number of plaques per spleen.\nImmunization: Groups of five female OFA rats were immunized on day 0 with 2×10^8/ml SRBC (obtained from Laboratory Animal Services LAS, Novartis Pharma AG) in a volume of 0.5 ml per rat by i.v. injection. […]\nOn day 4, animals were euthanized with CO2 Spleens were removed, weighed, and deposited in plastic tubes containing 10 ml of cold (4° C.) Hank's balanced salt solution (HBSS; Gibco, pH 7.3, containing 1 mg Phenolred/100 ml) for each rat spleen. […] Lymphocyte numbers per spleen were determined by automated cell counter and spleen cell suspensions were adjusted to a cell concentration of 30×10^6/ml. […]\nIn addition, one ml of 0.7% agarose was prepared in plastic tubes and kept at 48° C. in a water bath. […] Plaques were counted with a microscope. […]"}},
  "data": [
    {"smiles": "COc1ncc(N2CCc3ncnc(O[C@H]4CCN(C(=O)C5CCOCC5)C4)c3C2)cc1C", "note": "[Example 1, {(S)-3-[6-(6-Methoxy-5-methyl-pyridin-3-yl)-5,6,7,8-tetrahydro-pyrido[4,3-d]pyrimidin-4-yloxy]-pyrrolidin-1-yl}-(tetrahydro-pyran-4-yl)-methanone]", "values": [
      {"measurement": "IC50", "setting": "[1]", "value": 153, "unit": "nM"},
      {"measurement": "IC50", "setting": "murine B cells", "value": 94.9, "unit": "nM"},
      {"measurement": "Plaques/spleen", "setting": "[2]", "value": "12608 ± 4986"}
    ]}
  ]
}
